# Laboratory results taken from PMC9293725 (Computational and Structural Biotechnology Journal, 2022).
# What was measured:
# [1] = test system: P. falciparum 3D7 (chloroquine-sensitive); assay: In vitro P. falciparum growth inhibition; type: cell-based; conditions: Plasmodium falciparum; for EC50: 3D7, 72 h, read-out: EC50 Pf3D7; for inhibition at 5 µM: 3D7, read-out: inhibition of parasite growth
# [2] = test system: P. falciparum Dd2 (multidrug-resistant); assay: In vitro P. falciparum growth inhibition; type: cell-based; conditions: Plasmodium falciparum, DD2, 72 h, read-out: EC50 PfDd2
# [3] = cited from earlier work
# PfCDPK1 = conditions: read-out: KD PfCDPK1; cited from earlier work
# [4] = Cytotoxicity, MTT reduction method, COS-7; type: cell-based; conditions: monkey, COS-7 cells
# [5] = Cytotoxicity, MTT reduction method, HepG2; type: cell-based; conditions: human, HepG2 cells
SMILES,EC50 [1],EC50 [2],inhibition at 5 µM [1],other results
"CCN(CC)CCCC(C)Nc1ccnc2cc(Cl)ccc12 (stereo not drawn) [Chloroquine, reference compound]",0.009 µM,0.057 µM,–,–
CS(=O)(=O)c1ccc(-c2cnc(N)c(-c3ccc(C(F)(F)F)nc3)c2)cc1 [MMV390048],–,–,–,solubility (in words) [3]: poor solubility
"COc1ccc(-c2c(C)nn3c(NCCN4CCOCC4)cc(C)nc23)cc1OC [(6), 3-(3,4-dimethoxyphenyl)-2,5-dimethyl-N-(2-morpholin-4-ylethyl)pyrazolo[1,5-a]pyrimidin-7-amine]",13.8 ± 3.8 µM,17.9 ± 5.3 µM,> 30%,–
Cc1cn(-c2cc(NC(=O)c3ccc(C)c(Nc4nccc(-c5cccnc5)n4)c3)cc(C(F)(F)F)c2)cn1 [Nilotinib],–,–,–,Kd (PfCDPK1): 0.79 µM
"O=C1Nc2ccccc2C1=Cc1ccc[nH]1 [(3), 3-(1H-pyrrol-2-ylmethylidene)-1H-indol-2-one]",10.3 ± 1.3 µM,9.8 ± 1.1 µM,> 30%,CC50 at 72 h [4]: 32.8 ± 10.8 µM; CC50 at 72 h [5]: 13.5 ± 7.6 µM
